Our source for the EC50 values is US11254663B2 (BRISTOL-MYERS SQUIBB COMPANY, priority 2019, dated 2022).

Molecules are shown by their SMILES.

The target of this assay is FXR (Homo sapiens (Human), UniProt Q96RI1). Description: FXR EC50 (FXR agonist potency reported with each Example). Format: cell-based.
FXR, sequence (Q96RI1 262-486): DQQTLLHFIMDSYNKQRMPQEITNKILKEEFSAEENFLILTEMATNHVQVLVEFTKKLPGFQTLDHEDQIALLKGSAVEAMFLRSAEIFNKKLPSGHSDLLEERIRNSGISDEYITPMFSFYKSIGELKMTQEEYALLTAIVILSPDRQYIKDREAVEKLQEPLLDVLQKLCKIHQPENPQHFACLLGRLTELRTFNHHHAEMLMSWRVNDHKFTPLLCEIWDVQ
By EC50 is commonly meant the concentration that produces a half-maximal response. A lower EC50 goes with an effect from little substance. As to `O=C(N(CC12CCC(c3nc(C4CC4)no3)(CC1)CC2)c1cccc(-c2noc(C3(O)CC3)n2)c1)C12CC(F)(C1)C2` [Example 110, N-((4-(3-cyclopropyl-1,2,4-oxadiazol-5-yl)bicyclo[2.2.2]octan-1-yl)methyl)-3-fluoro-N-(3-(5-(1-hydroxycyclopropyl)-1,2,4-oxadiazol-3-yl)phenyl)bicyclo[1.1.1]pentane-1-carboxamide], a half-maximal response (EC50) required 88 nM.

As to `CC(=O)NC1(c2nc(-c3cccc(N(CC45CCC(c6nc(C7CC7)no6)(CC4)CC5)C(=O)C45CC(F)(C4)C5)c3)no2)CC1` [Example 111, N-(3-(5-(1-acetamidocyclopropyl)-1,2,4-oxadiazol-3-yl)phenyl)-N-((4-(3-cyclopropyl-1,2,4-oxadiazol-5-yl)bicyclo[2.2.2]octan-1-yl)methyl)-3-fluorobicyclo[1.1.1]pentane-1-carboxamide], the EC50 came to 120 nM. The EC50 values of the last two compounds are within 1.5-fold of each other. In turn, `CC(F)(F)c1nc(-c2cccc(N(CC34CCC(c5nc(C6CC6)no5)(CC3)CC4)C(=O)C34CC(F)(C3)C4)c2)no1` [Example 112, N-((4-(3-cyclopropyl-1,2,4-oxadiazol-5-yl)bicyclo[2.2.2]octan-1-yl)methyl)-N-(3-(5-(1,1-difluoroethyl)-1,2,4-oxadiazol-3-yl)phenyl)-3-fluorobicyclo[1.1.1]pentane-1-carboxamide] had a 50% effective concentration (EC50) of 68 nM. Regarding `CC1(c2nc(-c3cccc(N(CC45CCC(c6nc(C7CC7)no6)(CC4)CC5)C(=O)C45CC(F)(C4)C5)c3)no2)COC1` [Example 113, N-((4-(3-cyclopropyl-1,2,4-oxadiazol-5-yl)bicyclo[2.2.2]octan-1-yl)methyl)-3-fluoro-N-(3-(5-(3-methyloxetan-3-yl)-1,2,4-oxadiazol-3-yl)phenyl)bicyclo[1.1.1]pentane-1-carboxamide], the EC50 was determined as 121 nM. `O=C(N(CC12CCC(c3noc(C45CC(F)(C4)C5)n3)(CC1)CC2)c1cccc(-c2nc(C3CC3)no2)c1)C12CC(F)(C1)C2` [Example 114, N-(3-(3-cyclopropyl-1,2,4-oxadiazol-5-yl)phenyl)-3-fluoro-N-((4-(5-(3-fluorobicyclo[1.1.1]pentan-1-yl)-1,2,4-oxadiazol-3-yl)bicyclo[2.2.2]octan-1-yl)methyl)bicyclo[1.1.1]pentane-1-carboxamide]: it took 177 nM to reach a half-maximal effect (EC50). In the case of `CC1(c2nc(C34CCC(CN(C(=O)C56CC(F)(C5)C6)c5cccc(-c6nc(C7CC7)no6)c5)(CC3)CC4)no2)CC1` [Example 115, N-(3-(3-cyclopropyl-1,2,4-oxadiazol-5-yl)phenyl)-3-fluoro-N-((4-(5-(1-methylcyclopropyl)-1,2,4-oxadiazol-3-yl)bicyclo[2.2.2]octan-1-yl)methyl) bicyclo[1.1.1]pentane-1-carboxamide] it was 35 nM. `O=C(N(CC12CCC(c3noc(C4CC4)n3)(CC1)CC2)c1cccc(-c2nc(C3CC3)no2)c1)C12CC(F)(C1)C2` [Example 116, N-((4-(5-cyclopropyl-1,2,4-oxadiazol-3-yl)bicyclo[2.2.2]octan-1-yl)methyl)-N-(3-(3-cyclopropyl-1,2,4-oxadiazol-5-yl)phenyl)-3-fluorobicyclo[1.1.1]pentane-1-carboxamide] displayed an EC50 of 117 nM. For the compound `O=C(N(CC12CCC(c3noc(C(F)F)n3)(CC1)CC2)c1cccc(-c2nc(C3CC3)no2)c1)C12CC(F)(C1)C2` [Example 117, N-(3-(3-cyclopropyl-1,2,4-oxadiazol-5-yl)phenyl)-N-((4-(5-(difluoromethyl)-1,2,4-oxadiazol-3-yl)bicyclo[2.2.2]octan-1-yl)methyl)-3-fluorobicyclo[1.1.1]pentane-1-carboxamide], the EC50 worked out at 12 nM. As for `O=C(N(CC12CCC(c3noc(C4(C(F)(F)F)CC4)n3)(CC1)CC2)c1cccc(-c2nc(C3CC3)no2)c1)C12CC(F)(C1)C2` [Example 118, N-(3-(3-cyclopropyl-1,2,4-oxadiazol-5-yl)phenyl)-3-fluoro-N-((4-(5-(1-(trifluoromethyl)cyclopropyl)-1,2,4-oxadiazol-3-yl)bicyclo[2.2.2]octan-1-yl)methyl) bicyclo[1.1.1]pentane-1-carboxamide], it took 30 nM to reach a half-maximal effect (EC50). Against the preceding compound, the EC50 is about 2.5-fold higher.
